From US12240862B2, “Inhibitors of peptidylarginine deiminases” (Gilead Sciences, Inc., priority 2020, dated 2025)

Target: T1, human PAD4 (Homo sapiens, UniProt Q9UM07)
T1 construct: human PAD4 (NM_012387), A2P663, was PCR amplified; His-SUMO (N, cleaved yes); made in house; host or cells: E. coli BL21(DE3)
Experiment: In vitro PAD4 BAEE biochemical assay
Details: human PAD4, BAEE substrate; 5 nM PAD4, 2 mM calcium chloride, 3 mM BAEE; geometric mean of multiple experiments
How it was run: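 Ammonia generated from BAEE serves as the readout, measured by o-phthalaldehyde after EDTA termination. Final conditions: 5 nM human PAD4 (SUMO tag cleaved), 2 mM CaCl2, 3 mM BAEE, pH 7.6 MOPS buffer, 25 °C for 2 h following a 30-min compound preincubation.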

T1 sequence (Q9UM07 2-663): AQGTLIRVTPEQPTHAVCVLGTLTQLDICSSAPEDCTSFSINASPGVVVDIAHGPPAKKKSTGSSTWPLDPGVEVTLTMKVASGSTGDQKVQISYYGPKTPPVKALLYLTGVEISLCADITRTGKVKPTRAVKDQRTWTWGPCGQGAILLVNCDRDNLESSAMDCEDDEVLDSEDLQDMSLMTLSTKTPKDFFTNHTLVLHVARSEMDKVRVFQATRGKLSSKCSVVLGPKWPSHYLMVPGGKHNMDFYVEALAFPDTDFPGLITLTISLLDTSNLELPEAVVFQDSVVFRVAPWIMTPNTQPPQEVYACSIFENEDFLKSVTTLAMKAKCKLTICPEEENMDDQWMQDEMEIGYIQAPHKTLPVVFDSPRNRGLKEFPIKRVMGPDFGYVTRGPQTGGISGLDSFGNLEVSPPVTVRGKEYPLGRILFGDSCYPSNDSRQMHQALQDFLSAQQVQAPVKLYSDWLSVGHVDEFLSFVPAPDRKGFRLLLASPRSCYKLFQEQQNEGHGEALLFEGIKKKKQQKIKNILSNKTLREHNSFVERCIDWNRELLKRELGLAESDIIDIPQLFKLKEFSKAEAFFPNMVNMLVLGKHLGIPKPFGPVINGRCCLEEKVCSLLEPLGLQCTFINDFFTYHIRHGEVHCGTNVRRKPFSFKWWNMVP

Q: For `CS(=O)(=O)N(c1ccc2cc(-c3nc4cc(C(=O)N5CC[C@@H](N)C5)ccn4c3C3CC3)n(CC3CC3)c2n1)C(F)F` [Example 393, ~{N}-[2-[7-[(3~{R})-3-aminopyrrolidine-1-carbonyl]-3-cyclopropylimidazo[1,2-a]pyridin-2-yl]-1-(cyclopropylmethyl)pyrrolo [2,3-b]pyridin-6-yl]-~{N}-(difluoromethyl) methanesulfonamide], which IC50 is on record?
A: The IC50 was 2.01 µM.

Q: For `CS(=O)(=O)N(c1ccc2cc(-c3nc4cc(C(=O)N5CC[C@@H](F)[C@@H](N)C5)ccn4c3C3CC3)n(CC3CC3)c2n1)C(F)F` [Example 394, ~{N}-[2-[7-[(3~{S},4~{R})-3-amino-4-fluoropiperidine-1-carbonyl]-3-cyclopropylimidazo[1,2-a]pyridin-2-yl]-1-(cyclopropylmethyl)pyrrolo [2,3-b]pyridin-6-yl]-~{N}-(difluoromethyl) methanesulfonamide], which IC50 is on record?
A: Its IC50 is 1.07 µM.

Q: How did the IC50 turn out when `CS(=O)(=O)N(c1ccc2cc(-c3nc4cc(C(=O)N5CC[C@@H](O)[C@@H](N)C5)ccn4c3C3CC3)n(CC3CC3)c2n1)C(F)F` [Example 395, ~{N}-[2-[7-[(3~{S},4~{R})-3-amino-4-hydroxypiperidine-1-carbonyl]-3-cyclopropylimidazo[1,2-a]pyridin-2-yl]-1-(cyclopropylmethyl)pyrrolo [2,3-b]pyridin-6-yl]-~{N}-(difluoromethyl) methanesulfonamide] was run?
A: The IC50 was 0.259 µM.

Q: Which IC50 does the source give for `CS(=O)(=O)N(c1ccc2cc(-c3nc4cc(C(=O)N5C[C@H]6CC[C@@H]5[C@@H]6N)ccn4c3C3CC3)n(CC3CC3)c2n1)C(F)F` [Example 396, N-[2-[7-[(1R,4R,7R)-7-amino-2-azabicyclo [2.2.1]heptane-2-carbonyl]-3-cyclopropyl-imidazo[1,2-a]pyridin-2-yl]-1-(cyclopropylmethyl)pyrrolo [2,3-b]pyridin-6-yl]-N-(difluoromethyl) methanesulfonamide] here?
A: The IC50 was 0.194 µM.

Q: For `CS(=O)(=O)N(c1ccc2cc(-c3nc4cc(C(=O)N5[C@@H]6CC[C@@H](N)[C@H]5CC6)ccn4c3C3CC3)n(CC3CC3)c2n1)C(F)F` [Example 397], which IC50 is on record?
A: Its IC50 is 0.0748 µM.

Q: Which IC50 does the source give for `CS(=O)(=O)N(c1ccc2cc(-c3nc4cc(C(=O)N5CCC[C@@H](N)C5)ccn4c3C3CC3)n(CC3CC3)c2n1)C(F)F` [Example 398, ~{N}-[2-[7-[(3~{R})-3-aminopiperidine-1-carbonyl]-3-cyclopropylimidazo[1,2-a]pyridin-2-yl]-1-(cyclopropylmethyl)pyrrolo [2,3-b]pyridin-6-yl]-~{N}-(difluoromethyl) methanesulfonamide] here?
A: Its IC50 is 0.0607 µM.

Q: Which IC50 does the source give for `CCc1c(-c2cc3ccc(N(C(F)F)S(C)(=O)=O)nc3n2CC2CC2)nc2cc(C(=O)N3CCC[C@@H](N)C3)cc(OC)n12` [Example 399, ~{N}-[2-[7-[(3~{R})-3-aminopiperidine-1-carbonyl]-3-ethyl-5-methoxyimidazo[1,2-a]pyridin-2-yl]-1-(cyclopropylmethyl)pyrrolo [2,3-b]pyridin-6-yl]-~{N}-(difluoromethyl) methanesulfonamide] here?
A: Its IC50 is 0.285 µM.

Q: With `Cc1c(-c2cc3ccc(N(C(F)F)S(C)(=O)=O)nc3n2CC2CC2)nc2cc(C(=O)N3[C@@H]4CC[C@@H](N)[C@H]3CC4)ccn12` [Example 401, ~{N}-[2-[7-[(1~{R},2~{R}, 5~{R})-2-amino-8-azabicyclo[3.2.1]octane-8-carbonyl]-3-methylimidazo [1,2-a]pyridin-2-yl]-1-(cyclopropylmethyl)pyrrolo [2,3-b]pyridin-6-yl]-~{N}-(difluoromethyl) methanesulfonamide] as the compound, how does the IC50 read?
A: Its IC50 is 0.136 µM.

Q: Which IC50 does the source give for `Cc1c(-c2cc3ccc(N(C(F)F)S(C)(=O)=O)nc3n2CC2CC2)nc2cc(C(=O)N3C[C@H](N)CC[C@@H]3C)ccn12` [Example 402, ~{N}-[2-[7-[(2~{S},5~{R})-5-amino-2-methylpiperidine-1-carbonyl]-3-methylimidazo[1,2-a]pyridin-2-yl]-1-(cyclopropylmethyl)pyrrolo [2,3-b]pyridin-6-yl]-~{N}-(difluoromethyl) methanesulfonamide] here?
A: The IC50 was 0.203 µM.
